Measurements taken from patent US20240010616A1, “SIPONIMOD SALTS AND COCRYSTALS” (Synthon B.V., priority 2020, published 2024).
Entries after “also recorded” stand apart in the source; their conditions may differ.

Tests used:
[1] = Comparison of crystals (SEM pictures): crystal size and proneness to charging; assay type: physicochemical; settings: compared with prior art fumarate salt; for Proneness of crystals to charging: relates to processability into final forms (tablets); for Crystal size: crystals depicted in FIGS. 17 to 28
Experimental: • DCS patterns were obtained using the following conditions: 10° C./min->250° C. • Pictures of crystals were obtained by SEM Jeol JCM-6000. • Nuclear magnetic resonance spectroscopy (NMR) was performed using Avance III 400 MHz NMR spectrometer.
Prior art fumarate salt was prepared according to procedure described in WO2010/080409. In FIGS. 17 to 22 the crystals of prior art salt (FIG. 22) and crystals of salts of the presented invention (FIGS. 17 to 21) are depicted.
The crystals of solid Form 11 of cocrystal of Siponimod with adipic acid (2:1) are depicted in FIGS. 25 to 27. The crystal of Siponimod fumarate, Form A, are depicted in FIG. 28.

[2] = Water activity measured by DVS (weight difference between 0 and 90% relative humidity); assay type: physicochemical; settings: 25° C., 0-90-0% relative humidity, step 10%; compared with prior art Siponimod Fumarate (1:0.5), Form A
Experimental: Water activity of the prior art form and solid forms of presented invention was measured: DVS machine ProUmid SPX-1μ Advance, 25° C., 0-90-0% relative humidity, step 10%, maximal time per step 10 hours. Equilibrium bandwidth 0.05%/60 minutes.
Water activity: a difference between the weights of the sample in 0 and 90% of relative humidity at a constant temperature. It corresponds to the amount of water taken by the tested compound when the humidity changes from 0 to 90% at a constant temperature. The higher water activity the more water can be taken by the compound and that might result in lower purity of the compound because hydrolysis impurities can be formed.

| Structure (SMILES) | Proneness of crystals to charging [1] | Crystal size [1] | Water activity [2] |
| --- | --- | --- | --- |
| CCc1cc(/C(C)=N/OCc2ccc(C3CCCCC3)c(C(F)(F)F)c2)ccc1CN1CC(C(=O)O)C1.CCc1cc(/C(C)=N/OCc2ccc(C3CCCCC3)c(C(F)(F)F)c2)ccc1CN1CC(C(=O)O)C1.O=C(O)/C=C/C(=O)O [Prior art fumarate salt, reference compound] | prone to charging | small crystals | – |
| CCc1cc(/C(C)=N/OCc2ccc(C3CCCCC3)c(C(F)(F)F)c2)ccc1CN1CC(C(=O)O)C1.CCc1cc(/C(C)=N/OCc2ccc(C3CCCCC3)c(C(F)(F)F)c2)ccc1CN1CC(C(=O)O)C1.O=C(O)CCCCC(=O)O [Form 11] | less prone to charging | much bigger than crystals of Form A | lower water activity than Siponimod fumarate, Form A; also recorded: better comparing to prior art forms |
